According to patent US20100062517A1, “In situ production of microbial pigments for metal and actinide immobilization” (priority 2008, published 2010):

Assays:
[1] = test system: 4-HPPD; test: Pigment production in pure cultures of soil isolates with sulcotrione; type: cell-based, soil isolates (bacteria); conditions: sulcotrione 18 μM, LBSM with tyrosine 1 g/l, absorbance 400 nm, relative to no inhibitor
Text: Initial characterization of pigment included intensity of coloration and diffusion through agar media. Dark black non-diffusive pigments are indicative of DOPA melanin whereas reddish brown diffusive pigments are more likely pyomelanin. The chemical sulcotrione (Zeneca Agrochemicals) was used as a specific competitive inhibitor of 4-HPPD, the enzyme required for pyomelanin production. Methods incorporated sulcotrione to determine if pigment production was a result of 4-HPPD. Pure cultures of soil isolates were grown in LBSM and tyrosine (1 g/l) was supplemented to promote pigment production. Sulcotrione (18 μM) was added prior to pigmentation in order to differentiate pyomelanin production from other pigments that may be produced. Pigment production was quantified spectrophotometrically (400 nm) in cell free culture fluid. Controls for comparison were without tyrosine or without sulcotrione.

[2] = test system: Tims Branch soil; test: Field soil columns treated with tyrosine; parameters: species or system indigenous soil bacteria
Protocol: Additionally, the following soil properties were analyzed: percent organic matter by loss-on-ignition at a temperature of 375° C. and pH was determined from a 1:1 mineral/water equilibration solution. Also, total concentration of U in a homogenized soil sample was determined by a total microwave digestion of 0.6 g of homogenized soil material with concentrated acids (10 ml of HNO3, 4 ml of H2SO4, and 2 ml of HCl). The resulting extract solution was analyzed by ICP-MS. Changes in the organic content of soils due to pyomelanin production were also determined by spectrophotometric absorbance (400 nm) of particle free supernatants and Fourier transform infrared (FTIR) spectroscopy. Soil samples were removed (5-10 g/column) 28 days after treatment addition for pore water analysis. Optical density was determined for centrifuged soil to determine the degree of pigmentation resulting from tyrosine amendments. Dried pigments from soil effluents (60° C.) were then further characterized using FTIR spectroscopy and compared to that of pure tyrosine and dihydroxyphenylalanine (DOPA) melanin (Aldrich Chemicals). […] All samples were analyzed using a ThermoElectron Smart Orbit diamond single bounce attenuated total reflectance accessory. […] During field incubation rainfall was measured at 12.1 cm. […] Samples were processed the next day and analyzed for metals and pH.

Row | SMILES | Pigment production in bacterial cultures [1] | U in pore water compared to controls ([2]; 30 days after treatment, 10, 30 and 50 cm depths) | Duration of U immobilization ([2]; one-time addition of tyrosine to soil)
1 | CS(=O)(=O)c1ccc(C(=O)C2C(=O)CCCC2=O)c(Cl)c1 [sulcotrione] | halted |  | 
2 | N[C@@H](Cc1ccc(O)cc1)C(=O)O [tyrosine] |  | significantly decreased | at least 13 months
